Patent publication US6787518B1, “Therapeutics of osteoarthritis and inflammatory joint disease” (priority 1995, dated 2004)

Columns and labels:
[1] = test system: chondrocytes; assay: Calcification of chondrocytes (45Ca incorporation, Ca level) in centrifugal tube culture; assay type: cell-based, rabbit
From the text: (§1) In the following Examples, grown chondrocytes were separated from the subchondral bone to bone transition area of rabbits 4 weeks old from birth by the method of Shimomura et al. (Shimomura, Y. et al., Calcif. Tissue Res. 19, 179-187, 1975). The separated chondrocytes were cultivated by the method of Iwamoto et al. (Iwamoto, M. et al. Dev. Biol. 136 500-507, 1989) and the method of Kato et al. (Kato, Y. et al. Endocrinology, 127, 114-118, 1990). Stated specifically, the separated chondrocytes were suspended in an Eagle's minimum essential medium (MEM) to give a concentration of 8×10^4 cells/mL in the presence of 10% fetal bovine serum (FBS) and 50 μg/mL of ascorbic acid and then seeded in 1-mL portions into 15-mL plastic centrifugal tubes (Corning). After 5-min centrifugation (at 1,500 rpm), the cells were cultivated in a CO2 gas incubator having a temperature setting of 37° C. Starting on the 6th day of the cultivation, medium changes were made every other day. The presence of PTHrP receptors in the chondrocytes was verified by SDS gel electrophoresis. Stated specifically, the chondrocytes cultured for 14 days were homogenized and incubated with ^125I labelled PTHrP for 5 h. The PTHrP binding to the receptors was crosslinked with DSS, solubilized with a SDS buffer solution and electrophoresed through a SDS gel. After the electrophoresis, autoradiography was performed in the usual manner. As a control, excess PTHrP, was added to prevent the binding of ^125I labelled PTHrP to the receptors and the unbound PTHrP was electrophoresed by the same procedure and subjected to autoradiography.
As in Example 1, chondrocytes were cultured in a centrifugal tube. On the 8th day of the cultivation, 10^−7 M of PTHrP was added and the cultivation was continued for a period of up to 28 days. […] To investigate the progress of calcification, 0.5 μCi of ^45Ca was added at suitable intervals and its incorporation into the chondrocytes after 24 h, as well as the Ca level on the 28th day of the cultivation were measured.

[2] = test system: grown chondrocytes; assay: Cartilage matrix proteoglycan synthesis (incorporation of labelled sulfuric acid) in cultured chondrocytes; assay type: cell-based, rabbit; conditions: FIG. 2
Description: As in Example 1, grown chondrocytes were separated from the subchondral bone to bone transition area of rabbits 4 weeks old from birth by the method of Shimomura et al. (Shimomura, Y. et al., Calcif. Tissue Res. 19, 179-187, 1975). The separated chondrocytes were suspended in an Eagle's minimum essential medium (MEM) containing 10% fetal bovine serum and 50 μg/mL of ascorbic acid and seeded in a 96-well culture plate at a concentration of 5,000 cells in each well. When the cells became confluent, PTHrP was added and, one day later, 1 μCi of […] was added per well, followed by 17-h cultivation. The amount of cartilage matrix produced in the supernatant of the culture solution was measured by the method of Kato et al. (Kato, Y. et al., Endocrinology 122, 1991-1997, 1988). Briefly, the quantity of […] incorporated into proteoglycans was measured.

[3] = target: T1, PTHrP receptors (Oryctolagus cuniculus, UniProt G1T397); assay: Binding of 125I labelled PTHrP to receptors in chondrocyte homogenate (DSS crosslinking, SDS gel electrophoresis, autoradiography); set-up: species or system rabbit; conditions: addition of excess PTHrP; chondrocytes cultured 14 days, homogenized; FIG. 1
T1 construct: the chondrocytes cultured for 14 days were homogenized and incubated with ^125I labelled PTHrP for 5 h; endogenous in cells; host or cells: primary rabbit growth-plate chondrocytes, 14-day pellet culture, homogenized
T1 sequence (G1T397 29-589): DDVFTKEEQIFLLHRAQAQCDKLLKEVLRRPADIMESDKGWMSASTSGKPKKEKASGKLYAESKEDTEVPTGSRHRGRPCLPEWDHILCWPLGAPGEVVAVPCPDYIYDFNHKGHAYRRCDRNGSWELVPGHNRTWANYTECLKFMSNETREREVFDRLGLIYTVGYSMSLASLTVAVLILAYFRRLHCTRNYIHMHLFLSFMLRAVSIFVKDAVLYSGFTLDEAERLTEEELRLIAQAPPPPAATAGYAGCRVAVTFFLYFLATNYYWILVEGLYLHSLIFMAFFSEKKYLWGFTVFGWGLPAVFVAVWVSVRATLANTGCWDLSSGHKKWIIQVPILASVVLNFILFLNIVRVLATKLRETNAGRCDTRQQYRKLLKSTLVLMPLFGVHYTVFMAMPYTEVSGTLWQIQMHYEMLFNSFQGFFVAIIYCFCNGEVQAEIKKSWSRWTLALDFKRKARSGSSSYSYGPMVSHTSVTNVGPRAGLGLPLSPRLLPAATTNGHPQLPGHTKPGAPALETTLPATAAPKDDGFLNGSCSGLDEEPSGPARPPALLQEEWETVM
From the text: as §1, with “After the electrophoresis, autoradiography was performed in the usual manner. As a control, excess PTHrP, was added to prevent the binding of ^125I labelled PTHrP to the receptors and the unbound PTHrP was electrophoresed by the same procedure and subjected to autoradiography.” left out

[4] = test system: chondrocytes; assay: Growth of chondrocytes cultured in a centrifugal tube (DNA content); assay type: cell-based, rabbit; conditions: 10^−7 M added on 8th day, up to 28 days; 10^−10 to 10^−7 M, 21st day; FIG. 3, 4
From the text: In the following Examples, grown chondrocytes were separated from the subchondral bone to bone transition area of rabbits 4 weeks old from birth by the method of Shimomura et al. (Shimomura, Y. et al., Calcif. Tissue Res. 19, 179-187, 1975). The separated chondrocytes were cultivated by the method of Iwamoto et al. (Iwamoto, M. et al. Dev. Biol. 136 500-507, 1989) and the method of Kato et al. (Kato, Y. et al. Endocrinology, 127, 114-118, 1990). Stated specifically, the separated chondrocytes were suspended in an Eagle's minimum essential medium (MEM) to give a concentration of 8×10^4 cells/mL in the presence of 10% fetal bovine serum (FBS) and 50 μg/mL of ascorbic acid and then seeded in 1-mL portions into 15-mL plastic centrifugal tubes (Corning). After 5-min centrifugation (at 1,500 rpm), the cells were cultivated in a CO2 gas incubator having a temperature setting of 37° C. Starting on the 6th day of the cultivation, medium changes were made every other day. […]
As in Example 1, chondrocytes were cultured in a centrifugal tube. […] After the cultivation, the cells were solubilized at appropriate intervals and the time-dependent changes in DNA content were measured. In another experiment, PTHrP was added at varying concentrations from 10^−10 to 10^−7 M and the DNA content on the 21st day of the cultivation was measured.

[5] = test system: mRNA of type II collagen; assay: Expression of mRNA of type II collagen in cultured chondrocytes (hybridization with 32P cDNA probe); assay type: cell-based, rabbit; conditions: 10^−8 or 10^−7 M PTHrP, last 6 days of 30-day cultivation; FIG. 9
Description: (§2) As in Example 1, grown chondrocytes were separated from the subchondral bone to bone transition area of rabbits 4 weeks old from birth by the method of Shimomura et al. (Shimomura, Y. et a., Calcif. Tissue Res. 19, 179-187, 1975). The separated chondrocytes were suspended in an Eagle's minimum essential medium (MEM) containing 10% fetal bovine serum and 50 μg/mL of ascorbic acid and seeded on a 3.5-cm Petri dish coated with type I collagen, each well containing 5,000 cells. Following 30-day cultivation, 10^−8 and 10^−7 M of PTHrP was brought into action for the last 6 days. RNA was prepared from the cultured cells by the CsTFA method (Smale and Sasse, Anal. Biochem. 203, 352-356. 1992), separated by electrophoresis and thereafter transferred onto a membrane. The membrane onto which the RNA had been transferred was hybridized with a ^32P labelled cDNA probe for type X and II collagens.

[6] = test system: chondrocytes; assay: Alkaline phosphatase (ALP) activity of chondrocytes cultured in a centrifugal tube; assay type: cell-based, rabbit
From the text: as §1
As in Example 1, chondrocytes were cultured in a centrifugal tube. On the 8th day of the cultivation, 10^−7 M of PTHrP was added and the cultivation was continued for a period of up to 28 days. On the 21st day of the cultivation, a PTHrP free group was set and compared with the PTHrP treated group. In another experiment, PTHrP was added in varying amounts from […] and the dose-response relationship with the alkaline phosphatase activity (ALP activity) was verified. For the measurement of ALP activity, chondrocyte clusters were homogenized in 0.2% Triton X-100, centrifuged at 12,000 xg for 15 min and the supernatant was assayed by the method of Bessey et al. (Bessey O. A. et al., J. Biol. Chem. 164, 321-329, 1946). To investigate the progress of calcification, 0.5 μCi of ^45Ca was added at suitable intervals and its incorporation into the chondrocytes after 24 h, as well as the Ca level on the 28th day of the cultivation were measured.

[7] = test system: mRNA of type X collagen; assay: Expression of mRNA of type X collagen in cultured chondrocytes (hybridization with 32P cDNA probe); assay type: cell-based, rabbit; conditions: 10^−8 and 10^−7 M PTHrP, last 6 days of 30-day cultivation; FIG. 9
Description: as §2

## PTHrP: human 1-34PTHrP purchased from the Peptide Institute, Inc.; partial peptide of PTHrP, 34 amino acids from the N terminus
[1]; 10^−7 M PTHrP, PTHrP Treated Group, FIG. 7
  incorporation of 45Ca into the chondrocytes: suppressed
[1]; PTHrP Free Group, FIG. 7
  effect on 45Ca incorporation when PTHrP was removed: soon disappeared
[1]; concentrations higher than 10^−8 M PTHrP, FIG. 8
  calcification of chondrocytes: completely suppressed
[2]; 10^−6 M PTHrP
  matrix synthesizing capability relative to control (incorporation of 35S-sulfuric acid into proteoglycans): about 3 times
[2]; 10^−10 to 10^−6 M PTHrP, dose response
  incorporation of 35S-sulfuric acid into proteoglycans: accelerated the incorporation of ^35S-sulfuric acid into proteoglycans in a dose-dependent manner
[3]
  binding of 125I labelled PTHrP to the receptors: completely prevented
[4]
  DNA content of the chondrocytes: not influenced at all
[5]
  expression of the mRNA of type II collagen: no effects
[6]; 10^−7 M PTHrP added on 8th day, up to 28 days, PTHrP Treated Group, FIG. 5
  ALP activity of the chondrocytes: suppressed
[6]; 10^−8 M PTHrP, FIG. 6
  ALP activity: suppressed almost completely
[6]; PTHrP removed on 21st day of cultivation, PTHrP Free Group, FIG. 5
  ALP activity after PTHrP was eliminated from the culture solution: restored to the level of the control group
[6]; dose response, 21st day, FIG. 6
  concentration at which PTHrP started to suppress the ALP activity: above 10^−9 M
[7]
  expression of the mRNA of type X collagen: significantly inhibited
